Data taken from ChEMBL document CHEMBL4308875, “Synthesis, antituberculosis studies and biological evaluation of new quinoline derivatives carrying 1,2,4-oxadiazole moiety” (Bioorg Med Chem Lett, 2019).
≈ marks a conversion by molar mass, not a printed value.

Experiments:
Type in all cases: functional
Settings in all cases: 168 h
[1] = test system: Mycobacterium tuberculosis; test: Antitubercular activity against rifampicin-resistant Mycobacterium tuberculosis after 7 days by resazurin dye based colorimetric assay
[2] = test system: Mycobacterium tuberculosis; test: Antitubercular activity against isoniazid-resistant Mycobacterium tuberculosis after 7 days by resazurin dye based colorimetric assay
[3] = test system: Mycobacterium tuberculosis; test: Antitubercular activity against streptomycin-resistant Mycobacterium tuberculosis after 7 days by resazurin dye based colorimetric assay
[4] = test system: Mycobacterium tuberculosis; test: Antitubercular activity against kanamycin-resistant Mycobacterium tuberculosis after 7 days by resazurin dye based colorimetric assay
[5] = test system: Mycobacterium tuberculosis; test: Antitubercular activity against moxifloxacin-resistant Mycobacterium tuberculosis after 7 days by resazurin dye based colorimetric assay
[6] = test system: Mycobacterium tuberculosis; test: Antitubercular activity against d-cycloserine-resistant Mycobacterium tuberculosis after 7 days by resazurin dye based colorimetric assay

| SMILES | MIC [1] [µg/mL] | MIC [2] [µg/mL] | MIC [3] [µg/mL] | MIC [4] [µg/mL] | MIC [5] [µg/mL] | MIC [6] [µg/mL] |
| --- | --- | --- | --- | --- | --- | --- |
| CC(=O)NC[C@H]1CN(c2ccc(N3CCOCC3)c(F)c2)C(=O)O1 [LINEZOLID] | 1.68 (≈ 4.98 µM) | 2.33 (≈ 6.91 µM) | 14.1 (≈ 41.7 µM) | 1.91 (≈ 5.66 µM) | 3.65 (≈ 10.8 µM) | 10.3 (≈ 30.7 µM) |
| CC(C)c1ccc(-c2nc(CN3CCN(c4ccnc5cc(Cl)ccc45)CC3)no2)cc1 | 3.81 (≈ 8.51 µM) | 4.17 (≈ 9.31 µM) | 28.6 (≈ 63.8 µM) | 3.24 (≈ 7.23 µM) | 4.01 (≈ 8.95 µM) | 3.68 (≈ 8.21 µM) |
| CO[C@H]1/C=C/O[C@@]2(C)Oc3c(C)c(O)c4c(O)c(c(/C=N/N5CCN(C)CC5)c(O)c4c3C2=O)NC(=O)/C(C)=C\C=C\[C@H](C)[C@H](O)[C@@H](C)[C@@H](O)[C@@H](C)[C@H](OC(C)=O)[C@@H]1C [RIFAMPIN] | > 4 | < 0.02 | 0.05 (≈ 0.0608 µM) | < 0.02 | 0.23 (≈ 0.279 µM) | < 0.02 |
| COc1c(N2C[C@@H]3CCCN[C@@H]3C2)c(F)cc2c(=O)c(C(=O)O)cn(C3CC3)c12 [MOXIFLOXACIN] | 0.42 (≈ 1.05 µM) | 0.49 (≈ 1.22 µM) | 0.94 (≈ 2.34 µM) | 0.21 (≈ 0.523 µM) | > 16 | 0.46 (≈ 1.15 µM) |
| NNC(=O)c1ccncc1 [ISONIAZID] | 0.49 (≈ 3.57 µM) | > 8 | 1 (≈ 7.29 µM) | 0.49 (≈ 3.57 µM) | 0.49 (≈ 3.57 µM) | 3.78 (≈ 27.6 µM) |
